Like-named read-outs stand apart in the source and are kept apart here.

Assay [1] relates to Fusarium graminearum. The class given is cell-based. The following applies: 48 hrs.
The test system of another assay is Gäumannomyces graminis. Kind of assay: Fungal growth assay, Gäumannomyces graminis (microtiter plate, PDB). The assay is classed as cell-based. The conditions noted are these: 72 hrs.
Assay [2] relates to Pyrenophora graminea. Kind of assay: Fungal growth assay, Pyrenophora graminea (microtiter plate, PDB). The following applies: 72 hrs. The class given is cell-based.
The test system of assay [3] is Fusarium graminearum. The class given is in vivo. The conditions noted are these: seed treatment 20 g/100 kg, corn seeds (cv. Magister) in inoculated soil.
Assay [4] concerns Pyrenophora graminea. Nature of the assay: Pyrenophora graminea/barley (stripe disease) seed treatment test. The assay is classed as in vivo. The following applies: seed treatment 20 g/100 kg, infected winter barley seeds. The method, then:
A-1. Pyrenophora graminea/Barley (Stripe Disease on Barley)
After application of the formulated seed treatment onto P. graminea-infected seeds of winter barley the seeds are sown in trays filled with field soil. The trays are kept in a growth room for 3 weeks at 4° C. After this period the trial is transferred to a greenhouse where a temperature of 12° C. and a 14 hr light period is provided. The following assessments are made: emergence count, final stand count, number of infected plants.

In the next assay the test system is Rhizoctonia solani. Nature of the assay: Rhizoctonia solani/cotton (damping off) seed treatment test. The assay is classed as in vivo. The conditions noted are these: seed treatment 200 g/100 kg, cotton seeds in inoculated soil. On the procedure:
A-2. Rhizoctonia solani/Cotton (Damping Off on Cotton)
A defined amount of mycelium of R. solani is blended with soil and trays are filled with the inoculated soil. The formulated test compounds are applied to cotton seeds. The treated cotton seeds are then sown into the inoculated soil. Until germination the test is stored at 20° C. and a rel. humidity of 90% in the dark. After germination the test is transferred to 25° C. and a rel. humidity of 70% with a photoperiod of 14 h. The evaluation is done by counting the emerged cotton plants and the number of emerged and diseased plants.

Consider `Cn1cc(C(=O)Nc2ccccc2C2CC2C2CC2)c(C(F)F)n1` (stereo not drawn) [Compound of formula A, reference compound], for which the “Observed control in % (% Cobs)” value with Fusarium graminearum [1] (0.03125 ppm) is 1.6%; in the assay with Fusarium graminearum [1] (0.0625 ppm), 2.4%; with Fusarium graminearum [1] (0.125 ppm), 8.4%; with Fusarium graminearum [1] (0.25 ppm), 7.8%; in the assay with Gäumannomyces graminis (0.5 ppm) it was 74.8%; with Pyrenophora graminea [2] (0.25 ppm), 0%.

For `Cc1ccc(C2CC(C)(c3cccnc3)N(C)O2)cc1` (stereo not drawn) [Compound of formula I], the “Observed control in % (% Cobs)” value with Fusarium graminearum [1] (0.03125 ppm) is on record as 0%; with Fusarium graminearum [1] (0.0625 ppm), 3.5%; in the assay on Fusarium graminearum [1] (0.125 ppm), 4.4%; with Fusarium graminearum [1] (0.25 ppm), 12.5%; with Gäumannomyces graminis (0.25 ppm), 26.0%; with Pyrenophora graminea [2] (0.5 ppm), 62.3%. Moreover, the activity in the assay on Fusarium graminearum [3] is 100%; in the assay with Pyrenophora graminea [4], 100%; in the assay on Rhizoctonia solani, 70%.

Source of the values: US8124565B2, “Method of protecting a plant propagation material, a plant, and/or plant organs” (priority 2006, dated 2012).
